Legend:
[1] = system: VSV-G pseudotyped HIV-1 luciferase reporter virus (HIVluc); type: cell-based
HIV-1NL4-3 = experiment: HIV-1 NL4-3 replication assay in SupT1 cells (p24 ELISA)
[2] = molecular target: recombinant HIV-1 protease (Human immunodeficiency virus type 1 group M subtype B, UniProt P03366); experiment: HIV-1 protease in vitro activity assay (FRET peptide)
[3] = Solubility (UV-vis spectroscopy, solvents); details: saturated solutions

CC(C)(C)NC(=O)[C@@H]1CN(Cc2cccnc2)CCN1C[C@@H](O)C[C@@H](Cc1ccccc1)C(=O)N[C@H]1c2ccccc2C[C@H]1O [Indinavir, reference compound]
reduction of infectivity / inhibition [1]: 96.6%

mixture of α, β and γ-N—N-dimethyl[70]fulleropyrrolidinium iodide [Compound 2a]
Effect on HIV-1 replication (FIG. 9C) (HIV-1NL4-3; 3 μM at time of infection, washed after 24 h): potent inhibitory effect | Effect on HIV-1NL4-3 replication (FIG. 3) (HIV-1NL4-3; 6 μM for 24 hrs, given 24 hours after infection, p24 followed seven additional days): able to impair viral replication | Effect on HIV-1 infectivity (FIG. 1) [1]: potently blocked the infectivity of HIV-1 | infectivity as compared to control (100%) infectivity [1]: 0.026% | reduction of infectivity / inhibition [1]: 72%

α-N,N-dimethyl[70]fulleropyrrolidinium iodide [Compound 2b]
inhibition of protease activity ([2]; at 80 μM): 65% | inhibition of protease activity ([2]; at 40 (unit not given)): 24% | Effect on HIV-1 infectivity (FIG. 1) [1]: potently blocked the infectivity of HIV-1 | infectivity as compared to control (100%) infectivity [1]: 0.047% | reduction of infectivity / inhibition [1]: 52%

β-N,N-dimethyl[70]fulleropyrrolidinium iodide [Compound 2c]
Effect on HIV-1 infectivity (FIG. 1) [1]: potently blocked the infectivity of HIV-1 | infectivity as compared to control (100%) infectivity [1]: 0.003% | reduction of infectivity / inhibition [1]: 71% | solubility in H2O:DMSO (9:1) [3]: 0.252 nM
